# Experimental data: ChEMBL document CHEMBL5385893, “Bestatin analogs-4-quinolinone hybrids as antileishmanial hits: Design, repurposing rational, synthesis, in vitro and in silico studies” (Eur J Med Chem, 2023)
# Activity calls are given as the source filed them. The rule behind the calls is not given here.
# How the values were obtained:
# Leishmania donovani [1] = experiment: Antileishmanial activity against promastigotes-based model of Leishmania donovani MHOM/SD/62/1S-CL2D assessed as growth inhibition by measuring metabolism of resazurin to resorufin by aerobic respiration at 25 uM measured after 3 days relative to control; format: functional; conditions: for inhibition: time 3.0 day; for inhibition at 25 µM: 72 h, time 3 day
# Leishmania donovani [2] = experiment: Antileishmanial activity against promastigotes-based model of Leishmania donovani MHOM/SD/62/1S-CL2D assessed as growth inhibition by measuring metabolism of resazurin to resorufin by aerobic respiration at 50 uM measured after 3 days relative to control; format: functional; conditions: for inhibition: time 3.0 day; for inhibition at 50 µM: 72 h, time 3 day
# [3] = Cytotoxicity against human THP-1 cells assessed as cell death by measuring metabolism of resazurin to resorufin measured after 3 days; format: toxicity, cell-based; conditions: time 3 day
# [4] = Cytotoxicity against human HEK293T cells assessed as cell death by measuring metabolism of resazurin to resorufin measured after 3 days; format: toxicity, cell-based, HEK-293T; conditions: time 3 day
Compound,inhibition (Leishmania donovani [1]),inhibition (Leishmania donovani [2]),inhibition at 50 µM (Leishmania donovani [2]) [%],CC50 at 72 h [3] [µM],inhibition at 25 µM (Leishmania donovani [1]) [%],CC50 at 72 h [4] [µM]
Cc1c(C(=O)N[C@@H](Cc2ccccc2)C(=O)C(N)=O)[nH]c2ccccc2c1=O,inactive,inactive,–,–,–,–
Cc1c(C(=O)N[C@@H](Cc2ccccc2)[C@@H](O)C(=O)NC(C)C)[nH]c2ccccc2c1=O,inactive,–,4,–,–,–
Cc1c(C(=O)N[C@@H](Cc2ccccc2)C(=O)C(=O)NCCc2ccccn2)[nH]c2ccccc2c1=O,inactive,inactive,–,–,–,–
Cc1c(C(=O)N[C@@H](Cc2ccccc2)C(=O)C(=O)NCCc2ccccc2)nc2ccccc2c1O,–,–,50,> 200,38,107
Cc1c(C(=O)N[C@@H](Cc2ccccc2)[C@@H](O)C(=O)NCCc2ccccc2)[nH]c2ccccc2c1=O,inactive,inactive,–,–,–,–
Cc1c(C(=O)N[C@@H](Cc2ccccc2)C(=O)C(=O)NC(C)C)[nH]c2ccccc2c1=O,inactive,inactive,–,–,–,–
COc1ccc(CCNC(=O)C(=O)[C@H](Cc2ccccc2)NC(=O)c2[nH]c3ccccc3c(=O)c2C)cc1,inactive,–,23,–,–,–
Cc1c(C(=O)N[C@@H](Cc2ccccc2)[C@@H](O)C(=O)NCc2ccccc2)[nH]c2ccccc2c1=O,–,–,91,93,53,> 200
CNC(=O)[C@H](O)[C@H](Cc1ccccc1)NC(=O)c1[nH]c2ccccc2c(=O)c1C,–,–,22,–,1,–
COc1ccc(CNC(=O)C(=O)[C@H](Cc2ccccc2)NC(=O)c2[nH]c3ccccc3c(=O)c2C)cc1,inactive,–,9,–,–,–
CNC(=O)C(=O)[C@H](Cc1ccccc1)NC(=O)c1[nH]c2ccccc2c(=O)c1C,inactive,inactive,–,–,–,–
Cc1c(C(=O)N[C@@H](Cc2ccccc2)[C@@H](O)C(=O)NCc2ccc(F)cc2)[nH]c2ccccc2c1=O,inactive,–,8,–,–,–
COc1ccc(CNC(=O)[C@H](O)[C@H](Cc2ccccc2)NC(=O)c2[nH]c3ccccc3c(=O)c2C)cc1,inactive,–,16,–,–,–
Cc1c(C(=O)N[C@@H](Cc2ccccc2)[C@@H](O)C(=O)NCc2ccccn2)[nH]c2ccccc2c1=O,inactive,–,12,–,–,–
Cc1c(C(=O)N[C@@H](Cc2ccccc2)[C@@H](O)C(N)=O)[nH]c2ccccc2c1=O,–,–,51,> 200,17,> 200
Cc1c(C(=O)N[C@@H](Cc2ccccc2)C(=O)C(=O)NCc2ccccn2)[nH]c2ccccc2c1=O,inactive,inactive,–,–,–,–
COc1ccc(CNC(=O)[C@H](O)[C@H](Cc2ccccc2)NC(=O)c2[nH]c3ccccc3c(=O)c2C)cc1OC,inactive,–,23,–,–,–
CCNC(=O)[C@H](O)[C@H](Cc1ccccc1)NC(=O)c1[nH]c2ccccc2c(=O)c1C,inactive,–,1,–,–,–
Cc1c(C(=O)N[C@@H](Cc2ccccc2)C(=O)C(=O)NCc2ccccc2)[nH]c2ccccc2c1=O,–,–,22,–,3,–
Cc1c(C(=O)N[C@@H](Cc2ccccc2)[C@@H](O)C(=O)NCCc2ccccn2)[nH]c2ccccc2c1=O,–,–,31,–,8,–
COc1ccc(CCNC(=O)[C@H](O)[C@H](Cc2ccccc2)NC(=O)c2[nH]c3ccccc3c(=O)c2C)cc1,inactive,–,13,–,–,–
COc1ccc(CNC(=O)C(=O)[C@H](Cc2ccccc2)NC(=O)c2[nH]c3ccccc3c(=O)c2C)cc1OC,inactive,–,38,–,–,–
Cc1c(C(=O)N[C@@H](Cc2ccccc2)C(=O)C(=O)NCc2ccc(F)cc2)[nH]c2ccccc2c1=O,inactive,inactive,–,–,–,–
CCCCCCCC/C=C\CCCCCCCCCCCCOP(=O)([O-])OCCC[N+](C)(C)C,–,–,108,2,106,28
CCNC(=O)C(=O)[C@H](Cc1ccccc1)NC(=O)c1[nH]c2ccccc2c(=O)c1C,inactive,inactive,–,–,–,–
